One experiment addresses T1, TAP1/TAP2iso heterodimer (Homo sapiens, UniProt Q03518+Q03519).
T1 construct: expressed in transfected cells
T1 sequence (Q03519 1-653 isoform Q03519-2 L359K/V379I): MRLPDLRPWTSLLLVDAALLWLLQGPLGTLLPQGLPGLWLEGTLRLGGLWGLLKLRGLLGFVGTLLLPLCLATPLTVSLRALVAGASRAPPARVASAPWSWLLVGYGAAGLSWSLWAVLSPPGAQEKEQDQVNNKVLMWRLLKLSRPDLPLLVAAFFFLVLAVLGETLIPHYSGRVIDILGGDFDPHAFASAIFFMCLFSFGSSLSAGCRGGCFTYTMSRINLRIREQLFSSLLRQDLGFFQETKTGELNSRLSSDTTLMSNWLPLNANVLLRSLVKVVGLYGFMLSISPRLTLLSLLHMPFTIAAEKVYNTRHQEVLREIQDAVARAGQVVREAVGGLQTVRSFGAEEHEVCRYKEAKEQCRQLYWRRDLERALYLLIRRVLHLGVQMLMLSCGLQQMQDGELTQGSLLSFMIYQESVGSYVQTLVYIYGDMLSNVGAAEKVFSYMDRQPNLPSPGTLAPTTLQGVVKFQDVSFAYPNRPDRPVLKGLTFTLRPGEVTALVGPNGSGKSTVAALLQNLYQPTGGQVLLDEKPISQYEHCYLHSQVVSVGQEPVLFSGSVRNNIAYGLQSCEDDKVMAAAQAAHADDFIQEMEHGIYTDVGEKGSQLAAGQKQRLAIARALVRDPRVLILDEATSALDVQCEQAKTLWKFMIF
T1 sequence (Q03518 1-748): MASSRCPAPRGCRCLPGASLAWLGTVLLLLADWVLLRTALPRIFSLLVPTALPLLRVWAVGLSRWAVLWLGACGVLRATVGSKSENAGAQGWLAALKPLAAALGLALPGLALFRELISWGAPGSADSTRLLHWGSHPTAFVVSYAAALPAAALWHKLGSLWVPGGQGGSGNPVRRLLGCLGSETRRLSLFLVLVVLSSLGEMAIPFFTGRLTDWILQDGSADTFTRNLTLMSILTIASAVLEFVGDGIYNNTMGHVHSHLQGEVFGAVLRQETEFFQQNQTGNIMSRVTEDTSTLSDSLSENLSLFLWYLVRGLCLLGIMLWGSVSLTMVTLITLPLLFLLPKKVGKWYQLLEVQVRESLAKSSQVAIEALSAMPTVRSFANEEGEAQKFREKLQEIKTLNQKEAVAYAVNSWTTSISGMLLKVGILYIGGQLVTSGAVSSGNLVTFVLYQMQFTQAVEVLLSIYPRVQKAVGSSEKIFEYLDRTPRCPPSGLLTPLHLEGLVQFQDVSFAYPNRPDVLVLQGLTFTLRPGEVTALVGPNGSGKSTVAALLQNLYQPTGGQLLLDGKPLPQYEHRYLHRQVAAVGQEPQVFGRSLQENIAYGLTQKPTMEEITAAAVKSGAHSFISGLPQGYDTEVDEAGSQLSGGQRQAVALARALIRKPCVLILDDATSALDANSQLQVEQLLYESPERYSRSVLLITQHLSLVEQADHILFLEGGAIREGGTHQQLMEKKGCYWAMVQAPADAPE
Description: competition with transport of 125I-Peptide RRYQNSTEL in TAP1/TAP2iso transfectants. The class given is cell-based. The conditions noted are these: TAP1/TAP2iso transfectants. As for the experimental part: (§1) Glycosylated ^125 I Peptide […] (SEQ ID NO: 6), Peptide […] (SEQ ID NO: 7), or Peptide […] (SEQ ID NO: 8) was recovered and measured. The peptide translocation assay was performed essentially as previously described (Neefjes et al., Science, 261:769 (1993); and Momburg et al., J. Exp. Med., 179:1613 (1994)). Briefly, 2.5-5.0×10^6 T2 cell (transfected or untransfected) were washed once with incubation buffer (130 mM KCl, 10 mM NaCl, 1 mM CaC2, 2 mM EDTA, 2 mM MgCl2, 5 mM Hepes, pH 7.3) and permeabilized for 10 minutes at 37° C. with streptolysin O (2 IU/ml) (Wellcome, Beckenham, UK) in 50 μl of incubation buffer. After further addition of 10 μl of 100 mM adenosine triphosphate, 10 μl of ^125 I-labeled peptide (~15 pM), and 30 μl of incubation buffer, cells were incubated for an additional 10 minutes at 37° C. Transport was terminated by the addition of 1 ml of 1% NP-40 detergent, after which nuclei were removed by centrifugation and glycosylated peptides were recovered using concanavalin A-Sepharose (Sigma, St. Louis, Mo.) and quantitated with a gamma counter (LKB-Wallac).
Differential peptide selectivity of the TAP1/TAP2 and TAP1/TAP2iso heterodimers was further investigated by competition experiments with ^125 I-labeled Peptide […] (SEQ ID NO: 6) and various unlabeled peptides: Peptide […] (SEQ ID NO: 6); Peptide […] (SEQ ID NO: 7); Peptide […] (SEQ ID NO: 8); Peptide […] (SEQ ID NO: 9), the S1-24 fragment of human adrenocorticotropic hormone); and Peptide […] (SEQ ID NO: 10), residues 22 to 30 (human insulin B chain). The iodinated 9-mer Peptide […] was translocated in the presence of different concentrations of unlabeled competition peptides. The glycosylated peptides were recovered by Con A-Sepharose and quantitated. […] (self); (6B) competition of ^125 I-Peptide […] with Peptide […]; (6C) competition of ^125 I-Peptide […] with Peptide […]; and (6D) competition of ^125 I-Peptide […] with Peptide […]; and (6E) competition of ^125 I-Peptide […] with Peptide […].

Another experiment addresses T2, TAP1/TAP2 heterodimer (Homo sapiens, UniProt Q03518+Q03519).
T2 sequence (Q03518 1-748): T1 sequence (Q03518 1-748)
T2 sequence (Q03519 1-686 L359K/V379I): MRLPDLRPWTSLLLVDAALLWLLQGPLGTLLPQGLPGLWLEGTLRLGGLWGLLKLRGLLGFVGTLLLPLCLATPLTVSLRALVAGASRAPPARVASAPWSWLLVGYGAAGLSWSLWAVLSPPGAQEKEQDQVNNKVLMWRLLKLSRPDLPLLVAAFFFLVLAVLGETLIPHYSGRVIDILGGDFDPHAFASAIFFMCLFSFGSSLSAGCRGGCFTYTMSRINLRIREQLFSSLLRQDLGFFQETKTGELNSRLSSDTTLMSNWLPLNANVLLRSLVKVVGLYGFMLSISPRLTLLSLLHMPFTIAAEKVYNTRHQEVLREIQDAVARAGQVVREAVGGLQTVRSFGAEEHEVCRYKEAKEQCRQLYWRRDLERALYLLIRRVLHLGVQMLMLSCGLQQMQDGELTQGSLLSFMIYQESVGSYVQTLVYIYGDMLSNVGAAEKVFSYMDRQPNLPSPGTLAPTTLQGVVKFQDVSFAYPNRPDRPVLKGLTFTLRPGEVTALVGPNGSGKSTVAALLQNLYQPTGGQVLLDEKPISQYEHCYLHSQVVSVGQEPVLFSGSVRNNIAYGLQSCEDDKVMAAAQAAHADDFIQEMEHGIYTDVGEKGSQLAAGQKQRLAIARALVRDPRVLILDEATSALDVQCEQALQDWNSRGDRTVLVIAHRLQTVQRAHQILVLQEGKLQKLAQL
Description: competition with transport of 125I-Peptide RRYQNSTEL in TAP1/TAP2 transfectants. The class given is cell-based. As for the experimental part: as §1
Differential peptide selectivity of the TAP1/TAP2 and TAP1/TAP2iso heterodimers was further investigated by competition experiments with ^125 I-labeled Peptide […] (SEQ ID NO: 6) and various unlabeled peptides: Peptide […] […] The glycosylated peptides were recovered by Con A-Sepharose and quantitated. […]

The test system of experiment [1] is T1 cells (naturally co-express both TAP2 and TAP2iso). As to conditions: in words.
Experiment [2] deals with TAP1/TAP2iso heterodimer (compared with TAP1/TAP2). The experiment in a line: translocation of 125I-labeled peptides into the ER of permeabilized T2 transfectants. The class given is cell-based, human. The conditions noted are these: 125I-labeled glycosylated peptide recovered from streptolysin O permeabilized T2 transfectants; comparison in words. As for the experimental part: 10 mM stock solutions of peptides were prepared in dimethyl sulfoxide. Peptides (25 μg) were directly iodinated at unique tyrosine residues with the use of chloramine T (Sigma, St. Louis, Mo.), and free iodine was removed by gel filtration using Sephadex G 10 (Pharmacia) column chromatography.
as §1

The test system of experiment [3] is HLA class I molecules in T2 cells. Description: HLA class I maturation, endo H sensitivity, pulse-chase in transfected T2 cells. The class given is cell-based, human. The conditions noted are these: expressed with TAP1 in T2 cells, relative to untransfected T2 cells.
Description: A preferred method of measuring the rate at which MHC class I antigen complexes exit the ER is through the quantification of MHC class I proteins of the Golgi apparatus sensitive to endoglycosidase H (endo H). Glycosylation of MHC class I proteins in the Golgi apparatus results in an increase in their molecular mass and an increase in resistance of MHC class I-linked glycans to endo H. By [^35 S]methionine pulse-labeling TAP- or TAPiso-expressing cell cultures and chasing with unlabeled methionine at various times, the rate of MHC class I maturation in the ER can be gauged by observing differences in endo H sensitivity, e.g., compared with a TAP-deficient cell line such as T2.
High density cells (1×10^8 cells/ml) were labeled for 15 minutes in the presence of 500 μCi [^35 S]methionine (Amersham), and then chased at the indicated times in the presence of 10 mM unlabeled methionine.
Cells were lysed in an ice-cold lysis buffer, and lysates were incubated overnight at 4° C. with protein A Sepharose beads (Pharmacia) and normal rabbit serum (1:200 dilution). The beads were removed by centrifugation and the resulting supernatant was incubated for 12 hours at 4° C. with protein A beads and monoclonal antibody W6/32 (American Type Culture Collection (ATCC) accession no. HB 95), which recognizes HLA class I molecules. […]
The test system of experiment [4] is HLA class I (A2) on T2 cells. The experiment in a line: restoration of surface expression of HLA class I (A2) on transfected T2 cells, flow cytometry. The experiment is classed as cell-based, human. As to conditions: T2 cells transfected with the named cDNAs; four separate experiments, at least three stable clones. Here is the method: Plasmid DNAs were prepared using MAXI-PREP kits (Qiagen). TAP1- and TAP2-deficient T2 cells (donated by P. Cresswell, Howard Hughes Medical Institute, Yale University) (1-2×10^7 cells/ml) were transfected by electroporation with 10 μg of TAP1 and TAP2 or TAP2iso linear plasmid DNA in a 0.4-cm cuvette at 260 V and 960 μF. Subcloning and selection of transfectants were performed by culturing in the presence of hygromycin (250 μg/ml) or histidinol ([…]) for the PREP 4 and PREP8 vectors, respectively.
Immune complexes were detected with fluorescein isothiocyanate-conjugated goat anti-mouse IgG antibodies (Coulter, Hialeah, Fla.) and an Epics Elite flow cytometer (Coulter).
T2 cells were transfected with TAP1 cDNA in combination with TAP2 or TAPiso cDNAs as described above.

The mark [5] stands for this setting: unlabeled peptide against transport of 125I-Peptide RRYQNSTEL, read-out: median inhibitory concentration (IC50).

“Also recorded” adds a separate entry of the source.

Turning to RRYQNSTEL [Peptide RRYQNSTEL], the IC50 at TAP1/TAP2iso heterodimer (setting [5]) and at TAP1/TAP2 heterodimer (setting [5]) was ~150 nM throughout. In experiment [1], the “transportation of test peptides (relative IC50)” value was “equal efficiency”. For the same molecule, in experiment [2], the “amount of translocated peptide, TAP1/TAP2iso compared with TAP1/TAP2” value is given as “transported to similar extents; also recorded: translocated with equal efficiency”.
SYSMEHGRWGKPVGKKRRPVKVYP: the “inhibition of transport of Peptide RRYQNSTEL” value at TAP1/TAP2iso heterodimer (in words) and on TAP1/TAP2 heterodimer (in words) was “did not inhibit” throughout.

B1: TAP2: previously known TAP2 subunit (clone 0121, TAP2 F allele) (protein)
chain: T2 sequence (Q03519 1-686 L359K/V379I)
In the case of B1, the “HLA class I maturation as reflected in decreasing endo H sensitivity” value in experiment [3] is given as “increasing HLA class I maturation”. For the same molecule, in experiment [4], the “Mean fluorescence of HLA class 1 (A2) Mean ± SD” value was 6.11 ± 1.09.
